pIC50: −log10 of the molar value.
Tests used:
LasR = target: T1, LasR (Pseudomonas aeruginosa, UniProt P25084); test: E. coli LasR bioreporter (Para-lasR, PlasI-lacZ), β-galactosidase readout; format: cell-based; settings: for fold lower concentration inhibiting LasR-specific reporter than constitutive reporter: IC50 constitutive reporter vs LasR reporter; for pIC50: IC50 ± CI, LasR reporter, competed against 100 nM 3OC12-HSL, 95% confidence interval in parentheses
T1 construct: expressed in transfected cells; host or cells: E. coli DH5α carrying pJN105-L and pSC11-L
From the text: (§1) To characterize compounds for their potential activity as LasR antagonists, we used heterologous E. coli, which enables LasR to be isolated from other host regulation effects. We used an E. coli strain expressing LasR from an arabinose-inducible promoter (Para-lasR) on plasmid pJN105-L and a second plasmid with the LasR-inducible lasI promoter fused to a promoterless lacZ reporter (PlasI-lacZ) on plasmid pSC11-L (Fig. 2A). […] As a control, we also constructed an E. coli strain carrying a plasmid with lacZ expressed from the constitutive aphA-3 promoter ([29], [30]), pVT19.
(§2) To assess LasR activation of lasR expression in recombinant E. coli, we used E. coli strain DH5α carrying two plasmids; plasmid pJN105-L ([50]) with an arabinose-inducible P. aeruginosa lasR and plasmid pSC11-L ([51]) with the promoter of the LasR-responsive gene lasI fused to a lacZ reporter. For some studies, pJN105-L was replaced with derivatives of this plasmid encoding LasR mutants with single amino acid substitutions ([33]). To assess RhlR activation of rhlR expression in recombinant E. coli, we used E. coli DH5α with plasmid pECP61.5 ([38]) with an IPTG-inducible ptac-rhlR and an RhlR-responsive gene rhlA fused to the lacZ reporter. For constitutive expression of the lacZ reporter, we used E. coli DH5α with plasmid pVT19, which has the lacZ gene fused to the constitutive aphA-3 promoter. To construct pVT19, the constitutive aphA-3 promoter ([29], [30]) was amplified from a pTCV-lac derivative using primers Vlac1 and Vlac2 ([30]). The resulting amplicon was digested with EcoRI and BamHI and ligated into similarly digested pKS12A ([52]). The resulting plasmid with the aphA-3 promoter transcriptionally fused to lacZ was designated pVT19. For constitutive expression of the gfp reporter, we used E. coli DH5α with plasmid pUC18T-mini-Tn7T-Gm-gfpmut3 ([53]).
(§3) To assess LasR activation of lasR expression in recombinant E. coli, overnight cultures of E. coli DH5α pSC11-L and pJN105-L were diluted 1:100 into LB containing selection antibiotics gentamicin and ampicillin in 10 mL cultures. When the cultures reached an OD600 of 0.2–0.3, L-(+)-arabinose was added to a final concentration of 0.25%. […] Aliquots (5 µL) of increasing concentrations of inhibitor test compound stock solution in DMSO were then added to the designated micro centrifuge tubes containing culture. Tubes containing E. coli with just signal and DMSO were included as controls. After 3 h at 37°C with shaking, OD600 was measured using a plate reader, and β-galactosidase activity was measured as described above.

[1] = test system: constitutive aphA-3-lacZ reporter; test: E. coli constitutive aphA-3-lacZ reporter (pVT19), LasR reporter conditions; format: cell-based; settings: Escherichia coli, read-out: IC50 ± CI, Constitutive reporter
From the text: as §1, §2, §3
(§4) Experiments with the LasR mutants and the constitutive lacZ expression plasmid pVT19 or constitutive gfp expression plasmid pUC18T-mini-Tn7T-Gm-gfpmut3 were carried out identically as described above for the LasR or RhlR bioreporter experiments. Results with the […] constitutive reporter strain were different for the LasR vs RhlR bioreporter protocols likely due to differences in growth conditions (temperature and/or growth media).

RhlR = target: T2, RhlR (Pseudomonas aeruginosa, UniProt P54292); test: E. coli RhlR bioreporter (pECP61.5, rhlA-lacZ), β-galactosidase readout; format: cell-based
T2 construct: expressed in transfected cells; host or cells: E. coli DH5α carrying pECP61.5
From the text: (§5) To test the ability of our set of benzaldehydes and related compounds to antagonize RhlR, we generated dose-response curves with these compounds using an E. coli RhlR reporter strain (Fig. 6; Table 2). This strain is analogous to the LasR reporter above, but it carries plasmid pECP61.5 expressing RhlR from the isopropyl β-D-1-thiogalactopyranoside (IPTG)-inducible […] promoter as well as the rhlA-lacZ reporter ([38]). We also utilized our constitutive lacZ reporter plasmid pVT19 to generate dose-response curves using the RhlR assay conditions (Fig. 6; Table 2). […] With the constitutive lacZ reporter, there was a similar spread in potencies for our compounds, with ortho-vanillin having the lowest IC50 and salicylic acid as the highest. However, the IC50 for ortho-vanillin was fivefold lower with RhlR than with the constitutive lacZ reporter. There were also no observed effects of ortho-vanillin on growth until concentrations at which there was >50% antagonism of the RhlR reporter, and there was no antagonism of the constitutive lacZ reporter until concentrations >500 µM.
as §2
(§6) To assess RhlR activation of rhlR expression in recombinant E. coli, overnight cultures of E. coli DH5α pECP61.5 grown at 30°C in A medium containing antibiotic selection (ampicillin) and IPTG to induce RhlR expression were diluted to an OD600 of 0.1, and 1 mL was added to culture tubes containing dried C4-HSL. Aliquots (5 µL) of DMSO containing increasing concentrations of inhibitor test compound or DMSO with no test compound were added to the designated Eppendorf tubes containing culture. Tubes containing E. coli with signal and DMSO were included as vehicle control. After 5 h at 30°C with shaking, OD600 was measured using a plate reader, and β-galactosidase activity was measured as described above.

[2] = test system: constitutive aphA-3-lacZ reporter; test: E. coli constitutive aphA-3-lacZ reporter (pVT19), RhlR reporter conditions; format: cell-based, Escherichia coli; settings: for pIC50: Escherichia coli
From the text: as §5, §2, §6, §4

LasR mutants [3] = test: E. coli LasR mutant lasI-lacZ reporters (W60F, Y56F, T75V, Y93F, S129A); format: cell-based, Pseudomonas aeruginosa; settings: W60F, Y56F, T75V, Y93F, S129A; competed against 3OC12-HSL at EC50 of each mutant
From the text: (§7) To examine these putative interactions between ortho-vanillin and LasR, we determined the activity of ortho-vanillin in several LasR mutants. In prior studies in our laboratories, a set of LasR mutants were generated in which residues within the ligand-binding pocket were mutated to a different residue of similar steric size but without the capability to hydrogen bond (e.g., Tyr → Phe). These mutants were introduced into E. coli to generate lasI-lacZ reporters analogous to the wild-type LasR reporter above (see Table S1 and Materials and Methods). From that set, we selected five LasR mutant reporters to test ortho-vanillin (W60F, Y56F, T75V, Y93F, and S129A), which included the Thr75 and Ser129 residues predicted to be important for ortho-vanillin interaction in our in silico study. […] As a control, we also tested the ability of V-06–018 to antagonize the LasR S129A mutant. We used the same approach to test the ability of […] to antagonize LasR and the LasR S129A mutant. […] Results from one of the concentrations (100 µM) are shown instead.
as §2, with “The resulting amplicon was digested with EcoRI and BamHI and ligated into similarly digested pKS12A ([52]). The resulting plasmid with the aphA-3 promoter transcriptionally fused to lacZ was designated pVT19. For constitutive expression of the gfp reporter, we used E. coli DH5α with plasmid pUC18T-mini-Tn7T-Gm-gfpmut3 ([53]).” left out

[4] = test system: constitutive GFP reporter; test: E. coli constitutive GFP reporter (pUC18T-mini-Tn7T-Gm-gfpmut3); format: cell-based, Escherichia coli
From the text: To test whether these effects were specific to the lacZ reporter or general to other reporters, we generated an orsellinaldehyde dose-response curve using a strain constitutively expressing GFP (E. coli carrying a constitutive GFP-producing plasmid pUC18T-mini-Tn7T-Gm-gfpmut3).
as §2, with “The resulting plasmid with the aphA-3 promoter transcriptionally fused to lacZ was designated pVT19. For constitutive expression of the gfp reporter, we used E. coli DH5α with plasmid pUC18T-mini-Tn7T-Gm-gfpmut3 ([53]).” left out

E. coli = test: Growth (OD600) of E. coli reporter strain, LasR reporter conditions; format: cell-based, Escherichia coli; settings: at the highest concentrations
Experimental: as §3

LasR mutants [5] = target: T3, LasR mutants (Pseudomonas aeruginosa, UniProt P25084, S129A); test: E. coli LasR mutant lasI-lacZ reporters (W60F, Y56F, T75V, Y93F, S129A); format: cell-based; settings: S129A mutant
T3 construct: expressed in transfected cells; host or cells: E. coli DH5α carrying pSC11-L and a pJN105-L mutant analog (pJG044, pJG008, pJG011, pJG012 or pJG014)
From the text: as §7
as §2, with “The resulting amplicon was digested with EcoRI and BamHI and ligated into similarly digested pKS12A ([52]). The resulting plasmid with the aphA-3 promoter transcriptionally fused to lacZ was designated pVT19. For constitutive expression of the gfp reporter, we used E. coli DH5α with plasmid pUC18T-mini-Tn7T-Gm-gfpmut3 ([53]).” left out

[6] = IC50 ± CI, RhlR reporter, competed against 400 nM C4-HSL, 95% confidence interval in parentheses
[7] = read-out: IC50 ± CI, Constitutive reporter

T2 sequence (P54292 whole entry): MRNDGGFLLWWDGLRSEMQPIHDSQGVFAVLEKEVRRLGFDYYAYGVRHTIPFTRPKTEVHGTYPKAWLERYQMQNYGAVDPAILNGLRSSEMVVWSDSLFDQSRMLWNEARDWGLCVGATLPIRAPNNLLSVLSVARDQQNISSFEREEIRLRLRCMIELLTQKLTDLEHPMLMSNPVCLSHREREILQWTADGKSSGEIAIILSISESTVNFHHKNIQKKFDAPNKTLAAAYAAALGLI
T1 sequence (P25084 whole entry): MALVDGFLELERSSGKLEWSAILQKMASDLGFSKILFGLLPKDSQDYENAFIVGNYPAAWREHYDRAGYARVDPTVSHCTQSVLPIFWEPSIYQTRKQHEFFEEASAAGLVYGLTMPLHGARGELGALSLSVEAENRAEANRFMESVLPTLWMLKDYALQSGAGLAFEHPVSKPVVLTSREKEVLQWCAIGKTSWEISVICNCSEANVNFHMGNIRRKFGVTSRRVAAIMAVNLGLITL
T3 sequence (P25084 whole entry S129A): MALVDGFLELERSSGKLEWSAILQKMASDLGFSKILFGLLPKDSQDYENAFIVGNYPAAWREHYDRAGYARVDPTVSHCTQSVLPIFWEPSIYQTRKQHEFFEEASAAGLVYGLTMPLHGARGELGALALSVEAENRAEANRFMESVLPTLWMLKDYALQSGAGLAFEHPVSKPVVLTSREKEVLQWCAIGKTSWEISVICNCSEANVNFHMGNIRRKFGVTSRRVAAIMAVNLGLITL

SMILES | pIC50 (LasR) | pIC50 [1] | pIC50 (RhlR; [6]) | pIC50 [2, 7] | further results
COc1cccc(C=O)c1O [ortho-Vanillin] | 3.36 | 2.90 | 3.82 | 3.06 | difference in IC50 with varying 3OC12-HSL concentration (competition test) (LasR; 3OC12-HSL at […] nM, 1 µM and 10 µM, P > 0.07): not significant; fold lower concentration inhibiting LasR-specific reporter than constitutive reporter (LasR): threefold; change in potency with varying C4-HSL concentration (competition test) (RhlR; C4-HSL at 400 nM, 10 µM and 100 µM): significant C4-HSL concentration-dependent decrease in the potency; fold lower IC50 with RhlR than with constitutive lacZ reporter (RhlR; IC50 constitutive lacZ reporter vs RhlR reporter): fivefold; pIC50 ([2]; read-out: IC50, Constitutive reporter, Hill slope set at 1.0): 3.11; concentration until which there was no antagonism of the constitutive lacZ reporter ([2]; RhlR reporter conditions): > 500 µM; antagonism of LasR mutants compared with wild-type LasR (LasR mutants [3]): indistinguishable from that of the wild-type LasR
Cc1cc(O)cc(O)c1C=O [Orsellinaldehyde] | 2.63 | 2.64 | 3.02 | 2.56 | calculated LD50 of orsellinaldehyde with GFP ([4]; E. coli constitutive GFP reporter, Fig. S1 legend): 1057 µM; pIC50 ([4]; Escherichia coli, read-out: IC50, constitutive GFP reporter): 2.98; reduction of growth yield (E. coli): 10%–20%
Cc1ccc(O)c(C=O)c1 [2-hydroxy-5-methylbenzaldehyde] | 2.82 | 2.69 | 2.97 | 2.75 | fold lower concentration inhibiting LasR-specific reporter than constitutive reporter (LasR): 1.3 fold
COc1ccc(C=O)c(O)c1 [2-hydroxy-4-methoxybenzaldehyde] | 2.98 | 2.71 | 3.34 | 2.87 | –
CCCCCCCCCC(=O)CC(=O)Nc1ccccc1 [V-06–018] | – | – | – | – | antagonism of LasR S129A mutant compared with wild-type LasR (LasR mutants [5]; competed against 3OC12-HSL at its EC50): significantly less active; IC50, LasR S129A mutant (LasR mutants [5]; insufficient antagonism): could not be determined
O=C/C=C/c1ccccc1 [Cinnamaldehyde] | 3.07 | 2.84 | 2.88 | 2.55 | –
O=C(O)c1ccccc1O [Salicylic acid, reference compound] | – | 2.44 | 2.00 | 2.20 | pIC50 (RhlR; IC50, RhlR reporter, competed against C4-HSL): ~2.00

— PMC11370260 (Microbiology Spectrum, 2024)
